Here are results for 81 compounds from PMC12040169 (PLOS Biology, 2025).

The data set can be described thus: in vitro. The following applies: human, hela cells, % viability.
On to `Cc1c(CN(Cc2ccccc2)CC2CCCO2)cnn1C` (stereo not drawn) [CBK283263], for which the viability at 28.5 h, 10 µM was found to be 94.3%. For `Cc1nn(C)cc1CN(Cc1ccccc1)CC1CCCO1` (stereo not drawn) [CBK283264], the viability at 28.5 h, 10 µM came to 94.4%. Then `CCn1cc(CN(Cc2ccccc2)CC2CCCO2)c(C)n1` (stereo not drawn) [CBK283265], with 93.7%; and `CCc1nc2ccc(NC(=O)CCCc3ccncc3)cc2[nH]1` [CBK283268], with 111%; and `Cc1c(C(=O)N(C)CCc2ccncc2)[nH]c2ccccc12` [CBK283271], with 104%.

In the case of `Cc1ncc(C(=O)NC2(c3cccc(F)c3)CCCC2)c(C)n1` [CBK283273], the viability at 28.5 h, 10 µM turned out to be 89.4%.

Regarding `O=C(NCCN1CCC(O)(c2cccc(F)c2)CC1)C1CCCCC1` [CBK283281], the viability at 28.5 h, 10 µM was 96.2%. On to `COc1cccc2c1cc(C(=O)NCc1cc(C3CC3)[nH]n1)n2C` [CBK283282], for which the viability at 28.5 h, 10 µM was found to be 80.4%. The result for `COc1cccc2c1cc(C(=O)NCCCC1CCOC1)n2C` (stereo not drawn) [CBK283284] reads 93.4%; that for `O=C(NCCN1CCC(O)(c2cccc(F)c2)CC1)C1CCCC1` [CBK283285], 110%. For the compound `C=CCNC(=O)CCn1c(C(C)C)cc2cccnc21` [CBK283289], the viability at 28.5 h, 10 µM came out at 105%. The result for `C=Cn1ncc(CN(Cc2ccc(C)o2)CC2CCCO2)c1C` (stereo not drawn) [CBK283292] reads 101%; that for `O=C(NCCCc1ccccn1)c1cc(C2CCCCC2)no1` [CBK283296], 89.4%. As to `Cc1nc2ccc(C(=O)NCCCN3CC(C)CC(C)C3)cc2[nH]1` (stereo not drawn) [CBK283298], the viability at 28.5 h, 10 µM is 85.4%. On to `C=Cn1ncc(CN2CCC3(O)CCCCC3C2)c1C` (stereo not drawn) [CBK283302], for which the viability at 28.5 h, 10 µM amounted to 94.5%. As for `CC(c1ccco1)N(C)Cc1c[nH]nc1-c1ccc(O)cc1` (stereo not drawn) [CBK283303], the viability at 28.5 h, 10 µM is 89%. The result for `C[S+]([O-])CCNC(=O)c1cc2c(Cl)cccc2[nH]1` (stereo not drawn) [CBK283304] reads 83.9%; that for `Cc1cc(C(=O)NCC[S+](C)[O-])c(-n2cccc2)s1` (stereo not drawn) [CBK283305], 96.7%. Take `CCn1cncc1CN1CCN(CC2(c3ccc(C)cc3)CC2)CC1` [CBK283307]: the viability at 28.5 h, 10 µM worked out at 105%. Take `CC(Cc1ccccn1)N(C)C(=O)c1cnn(-c2ccc(F)cc2)c1` (stereo not drawn) [CBK283316]: the viability at 28.5 h, 10 µM turned out to be 99.6%. `OC1CCN(Cc2c(-c3cccs3)[nH]c3ncccc23)CC1` [CBK283318]: the viability at 28.5 h, 10 µM stood at 79.9%. The result for `O[C@@H]1CN(Cc2ccc(F)c(F)c2)CC[C@H]1NC1CC1` [CBK283319] reads 94%. As to `Cc1ccc(C2(O)CCN(CCNC(=O)C3CCCCC3)CC2)cc1` [CBK283323], the viability at 28.5 h, 10 µM worked out at 97.4%. Consider `CN(Cc1cccn1C)C(=O)c1cc(-c2cnn(C)c2)[nH]n1` [CBK283325], for which the viability at 28.5 h, 10 µM is 103%.

For the compound `C=CCn1c2cc(C)oc2c2cnn(CC(=O)N(C)C)c(=O)c21` [CBK283326], the viability at 28.5 h, 10 µM came to 101%. With `OCc1c(-c2ccc(F)cc2)[nH]c2ncccc12` [CBK283328], the viability at 28.5 h, 10 µM turned out to be 86.5%. Turning to `Cc1csc2c(C3CCCN(C(=O)c4cccnc4)C3)nc(C)n12` (stereo not drawn) [CBK283329], the viability at 28.5 h, 10 µM was 93.4%. Regarding `Cn1c(=O)n(CC(=O)NC2(C)C3CCC(C3)C2(C)C)c2cccnc21` (stereo not drawn) [CBK283330], the viability at 28.5 h, 10 µM was 84.9%.

Take `O=C1Nc2c(cnn2-c2ccccc2Cl)C2=NCCCN12` [CBK283331]: the viability at 28.5 h, 10 µM was 100%. As to `O=C1NC2(CCc3ccccc31)CCN(C(=O)c1cccnc1)C2` (stereo not drawn) [CBK283335], the viability at 28.5 h, 10 µM worked out at 96.5%. As to `COc1ccc(CN2CCC3(CCc4ccccc4C(=O)N3)C2)cc1` (stereo not drawn) [CBK283339], the viability at 28.5 h, 10 µM amounted to 97.6%. The result for `O=C(C1CCCC1)N1CC(n2nc(-c3cccs3)ccc2=O)C1` [CBK283345] reads 86.8%. Regarding `O=C(c1cccs1)N1CC(n2nc(-c3cccs3)ccc2=O)C1` [CBK283347], the viability at 28.5 h, 10 µM was 97.3%.

Regarding `O=C1CCC[C@]2(CN(Cc3ccccc3)C[C@H]2c2ccncc2)N1` [CBK283348], the viability at 28.5 h, 10 µM is 84.5%. For `Cc1cccc([C@@H]2CN(Cc3ccccc3)C[C@]23CCCC(=O)N3)n1` [CBK283350], the viability at 28.5 h, 10 µM was 107%. As for `O=C(C1C2CCCCC21)N1CCC(c2nnc3n2CCCCC3)CC1` (stereo not drawn) [CBK283351], the viability at 28.5 h, 10 µM is 95.2%. With `O=C1NC2(CCc3ccccc31)CCN(C(=O)CCn1cccn1)C2` (stereo not drawn) [CBK283352], the viability at 28.5 h, 10 µM is 91.2%.

As to `O=C1CC2(CCN(S(=O)(=O)Cc3ccc(Cl)cc3)CC2)CN1` [CBK283355], the viability at 28.5 h, 10 µM amounted to 102%. As for `COCC(=O)N1C[C@@H](c2ccc(F)c(F)c2)[C@@]2(CCCC(=O)N2)C1` [CBK283358], the viability at 28.5 h, 10 µM came out at 103%. Regarding `O=C1CC2(CCN(Cc3ccc(C(F)(F)F)cc3)CC2)CN1` [CBK283359], the viability at 28.5 h, 10 µM came out at 86.8%. With `O=C(NC[C@H]1CC[C@H](c2nnc(-c3ccsc3)o2)CC1)C1CC1` [CBK283361], the viability at 28.5 h, 10 µM came to 85.5%. Then `O=C(NC[C@H]1CC[C@H](c2nnc(-c3ccsc3)o2)CC1)C1CCC1` [CBK283363], with 87.1%; and `Cc1ncc(CNC(=O)C2CC2)c(-c2cn(C)c3ccccc23)n1` [CBK283366], with 103%. Regarding `O=C1CCOC[C@]2(CN(Cc3ccccc3)C[C@H]2c2ccccc2)N1` [CBK283367], the viability at 28.5 h, 10 µM amounted to 92.6%. `CC(=O)N1C[C@@H](c2cccc(C)c2)[C@@H]2CN(Cc3cccnc3)CC[C@@H]21` [CBK283368]: the viability at 28.5 h, 10 µM was 89.7%. Then `CC(=O)N1C[C@@H](c2cccc(C)c2)[C@@H]2CN(Cc3ccncc3)CC[C@@H]21` [CBK283370], with 96.1%; and `COc1cccc([C@H]2CN(C(C)=O)[C@@H]3CCN(C4CCCC4)C[C@H]23)c1` [CBK283375], with 89.7%; and `O=C(C1CC1)N1CCC(c2nnc(-c3ccsc3)o2)CC1` [CBK283376], with 91.6%. For `O=C(C1CCCC1)N1CCC(c2nnc(-c3ccsc3)o2)CC1` [CBK283379], the viability at 28.5 h, 10 µM was found to be 86.5%. Turning to `O=C(C1CCCCC1)N1CCC(c2nnc(-c3ccsc3)o2)CC1` [CBK283380], the viability at 28.5 h, 10 µM was determined as 104%. Regarding `O=C(C1CC1)N1C[C@@H](c2ccsc2)[C@@H]2CN(C3CCCC3)CC[C@@H]21` [CBK283382], the viability at 28.5 h, 10 µM came out at 107%.

As for `Cc1c(C(=O)N2CCC(c3cc4ncccc4[nH]3)CC2)cnn1C` [CBK283384], the viability at 28.5 h, 10 µM is 88.1%. As to `O=C(c1ccccc1)N1CCC(c2cc3ncccc3[nH]2)CC1` [CBK283385], the viability at 28.5 h, 10 µM worked out at 89.4%. For `COc1ccc(CC(=O)N2CCC(c3cc4ncccc4[nH]3)CC2)cc1` [CBK283386], the viability at 28.5 h, 10 µM is 84.3%. In the case of `CCCNC(=O)c1cc(C2CCCN(Cc3ccc(F)cc3)C2)no1` (stereo not drawn) [CBK283387], the viability at 28.5 h, 10 µM came to 94%. For the compound `CCCNC(=O)c1cc(C2CCCN(Cc3ccccc3)C2)no1` (stereo not drawn) [CBK283388], the viability at 28.5 h, 10 µM turned out to be 98%. Regarding `CC(C)(C)NC(=O)NC1CCC2(CC1)CC(=O)c1ccccc1O2` (stereo not drawn) [CBK283390], the viability at 28.5 h, 10 µM was found to be 109%. With `CC(C)n1cc(C(=O)N2CCC(c3cc4ncccc4[nH]3)CC2)cn1` [CBK283392], the viability at 28.5 h, 10 µM was 95.6%. With `O=C(Cc1cccs1)N1CCC(c2cc3ncccc3[nH]2)CC1` [CBK283393], the viability at 28.5 h, 10 µM amounted to 86.5%. As to `O=C(c1cscn1)N1CCCCC1c1nc2ccccc2[nH]1` (stereo not drawn) [CBK283394], the viability at 28.5 h, 10 µM amounted to 91%. As for `COc1cccc(C(=O)N2CCC(c3cc4ncccc4[nH]3)CC2)c1` [CBK283398], the viability at 28.5 h, 10 µM was found to be 117%. On to `Cn1cc2c(n1)[C@H]1CN(C(=O)c3cc(C(F)(F)F)n(C)n3)C[C@H]1C2` [CBK283399], for which the viability at 28.5 h, 10 µM amounted to 88.5%. As to `CC(=O)Nc1ccc(CN2CCCC(c3cc4ncccc4[nH]3)C2)cc1` (stereo not drawn) [CBK283402], the viability at 28.5 h, 10 µM was 92.4%. Consider `Cc1cc(-c2cn(C)nc2C2CCCCN2C(=O)C2CCC2)on1` (stereo not drawn) [CBK283403], for which the viability at 28.5 h, 10 µM turned out to be 83.7%.

In the case of `Cc1cc(-c2cn(C)nc2C2CCCCN2C(=O)C2CCCC2)on1` (stereo not drawn) [CBK283404], the viability at 28.5 h, 10 µM was 96.9%. In the case of `CCCC(=O)N1CCCCC1c1nn(C)cc1-c1cc(C)no1` (stereo not drawn) [CBK283407], the viability at 28.5 h, 10 µM worked out at 106%. Then `Cc1noc(-c2cn(C)nc2C2CCCCN2CC2CC2)c1C` (stereo not drawn) [CBK283408], with 88.1%; and `CCCC(=O)N1CCCCC1c1nn(C)cc1-c1onc(C)c1C` (stereo not drawn) [CBK283409], with 80.5%; and `CCC(=O)N1CCCCC1c1nn(C)cc1-c1onc(C)c1C` (stereo not drawn) [CBK283411], with 80.5%. Take `Cn1ccc(C(=O)N2CCCC(c3cc4ncccc4[nH]3)C2)n1` (stereo not drawn) [CBK283412]: the viability at 28.5 h, 10 µM stood at 89.8%.

For the compound `CC(C)(C)OC(=O)N1CCC(c2cc(=O)n3c(n2)CCCCC3)C1` (stereo not drawn) [CBK283415], the viability at 28.5 h, 10 µM stood at 88.4%. As for `COc1cccc(C(=O)N2CCCC(c3cc4ncccc4[nH]3)C2)c1` (stereo not drawn) [CBK283416], the viability at 28.5 h, 10 µM stood at 104%. Consider `COc1ccc(CC(=O)N2CCCC(c3cc4ncccc4[nH]3)C2)cc1` (stereo not drawn) [CBK283418], for which the viability at 28.5 h, 10 µM is 94.5%. Regarding `CC(C)n1cc(C(=O)N2CCCC(c3cc4ncccc4[nH]3)C2)cn1` (stereo not drawn) [CBK283419], the viability at 28.5 h, 10 µM turned out to be 88.2%. As to `COc1ccc(CC(=O)N2CCC(c3cc4ccccc4cn3)C2)cc1` (stereo not drawn) [CBK283421], the viability at 28.5 h, 10 µM amounted to 105%. In the case of `Cc1cc(O)cc(C2CCCN(C(=O)CC3CCCC3)C2)n1` (stereo not drawn) [CBK283422], the viability at 28.5 h, 10 µM amounted to 107%. In the case of `Cc1csc(C(=O)N2CCCC(c3cc(O)cc(C)n3)C2)c1` (stereo not drawn) [CBK283423], the viability at 28.5 h, 10 µM stood at 89.5%.

On to `COc1ccc(C(=O)N2C[C@H]3Cc4c(n[nH]c4C(F)F)[C@H]3C2)s1` [CBK283425], for which the viability at 28.5 h, 10 µM is 95.4%. Consider `O=C(CC1CCCCC1)N1CCCC1c1n[nH]cc1-c1ccncc1` (stereo not drawn) [CBK283429], for which the viability at 28.5 h, 10 µM was 90.4%. Consider `Cc1ccccc1CC(=O)N1CCCC1c1n[nH]cc1-c1ccncc1` (stereo not drawn) [CBK283431], for which the viability at 28.5 h, 10 µM amounted to 87.7%. With `Cc1nc(C)c(C(=O)N2CCC(c3cc4cnccc4[nH]3)CC2)s1` [CBK283432], the viability at 28.5 h, 10 µM was determined as 102%.
